According to patent US6596705B1, “Inhibition of L-selectin and P-selection mediated binding using heparin” (The Regents of the University of California, priority 1998, dated 2003):

How the values were obtained:
P-selectin = test: ELISA inhibition of P-selectin binding to immobilized SLe^x; conditions: average of 2-3 experiments, concentration from assumed average molecular weight
Method: (§1) ELISA inhibition assays were performed as previously reported (O'Connell et al., Proc. Natl. Acad. Sci. USA 93:5883-5887 (1996); Koenig et al., supra, 1997). Sterile 96 well ELISA plates were coated with 200 ng of polyacrylamide-SLe^x (Glycotech; Rockville Md.) by overnight incubation at […] in 100 μl of 50 mM sodium carbonate/bicarbonate buffer, pH 9.5. Plates were blocked for at least 2 hours at 4° C. with 200 μl of 20 mM Hepes, 125 mM NaCl, 2 mM CaCl2, 2 mM MgCl2, 1% protease-free BSA, pH 7.45 (osmolarity 290 milliosmoles) per well. During the blocking step, the selectin-Rg chimeras were separately preincubated at 4° C. with a peroxidase-conjugated goat anti-human IgG secondary antibody (Jackson Immunoresearch Laboratories, Inc.; West Grove Pa.) in assay buffer for approximately 1 hour.
(§2) Final selectin-Rg concentration was 20 nM, and the secondary antibody dilution was 1:1000. […]
(§3) These tubes were preincubated at 4° C. for 30 minutes, then added to ELISA plates, in duplicates, to a well volume of 100 μl. […] The absorbance at 492 nm was determined using SOFTMAX software and a microplate reader (Molecular Devices Inc., Menlo Park Calif.). Prior to curve fitting, the absorbance values were converted into percentages for comparative purposes using the formula: ({(average of duplicates)−(negative control)}/{(positive control)−(negative control)})×100) using the SOFTMAX software.

L-selectin = test: ELISA inhibition of L-selectin binding to immobilized SLe^x; conditions: average of 2-3 experiments, concentration from assumed average molecular weight
Chain of L-selectin (P14151 39-318 limits assumed): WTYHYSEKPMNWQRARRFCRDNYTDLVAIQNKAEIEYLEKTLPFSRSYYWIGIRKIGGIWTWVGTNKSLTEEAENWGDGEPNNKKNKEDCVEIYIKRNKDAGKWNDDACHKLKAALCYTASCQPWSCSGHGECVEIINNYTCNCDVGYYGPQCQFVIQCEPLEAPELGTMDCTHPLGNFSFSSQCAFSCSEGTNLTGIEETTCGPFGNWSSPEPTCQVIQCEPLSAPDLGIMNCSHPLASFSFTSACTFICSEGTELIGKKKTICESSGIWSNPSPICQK
Method: as §1, §2, §3

Chain of P-selectin (P16109 42-195 limits assumed): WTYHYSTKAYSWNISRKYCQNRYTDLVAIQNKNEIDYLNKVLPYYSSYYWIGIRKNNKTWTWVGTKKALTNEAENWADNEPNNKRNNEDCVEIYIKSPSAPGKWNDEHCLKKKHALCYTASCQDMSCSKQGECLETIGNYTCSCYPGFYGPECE

Substance: Siao2-3 Galβ1-4 (Fucal-3) GlcNAc [Sialyl Lewis^x]
- IC50 (P-selectin): 520 µM
- IC50 (L-selectin): 600 µM
